Laboratory results reported in US5256820A, “1-alkyl-2-acyl-1,2-disulfonylhydrazines” (Yale University, priority 1991, dated 1993).
“Also recorded” adds a separate entry of the source.

Legend:
[1] = system: L1210 leukemia; assay: Survival time of mice bearing the L1210 leukemia; assay type: in vivo, mouse; conditions: for antineoplastic activity / curative effect (in words): L1210 leukemia mice; for % 60-day survivors / % T/C (average survival time of treated/control mice × 100) / AvΔ wt % (average percent change in body weight from onset to termination of therapy): at opt. effective daily dose; for % T/C (average survival time of treated/control mice × 100): 60-day survivors not included; for AvΔ wt % (average percent change in body weight from onset to termination of therapy): vehicle control +2.0; for Opt. effective daily dose: once daily for six consecutive days, beginning 24 h after tumor implantation, L1210 mice
Description: The antineoplastic activity of each of the compounds of Examples 1-6 was assessed by measuring their effects on the survival time of mice bearing the L1210 leukemia by the method generally disclosed in Shyam et al. J. Med. Chem. (1990) 33:2259-2264. The compounds were administered once daily for six consecutive days. Percent change in body weight from onset to termination of therapy was recorded. The results are summarized in Table I. All of the compounds tested produced at least partial 60-day "cures" of mice bearing the L1210 leukemia. […] This compound also produced 80-90% "cures" at 10 and 15 mg/kg×6.
Effects of 2-Acyl-1,2-bis(methylsulfonyl)-1-
^a Administered once daily for six consecutive days, beginning 24 h
after tumor implantation, with 5-10 mice being used per group.
^b Average day of death for untreated tumorbearing mice was 8.4.
^c Average percent change in body weight from onset to termination of
therapy. Average percent change in body weight for vehicletreated control
^d % T/C = average survival time of treated/control mice × 100;
60day survivors are listed separately and are not included in this

[2] = Water solubility; assay type: physicochemical
[3] = Shyam et al. J. Med. Chem. (1990) 33:2259-2264; cited from earlier work
[4] = Alkylation of 4-(4'-nitrobenzyl)pyridine in presence and absence of bovine serum; conditions: 4 mM compound, 37° C., 1 h, 100 mM phosphate buffer pH 7.4
Description: Serum was capable of stimulating the alkylation of the model nucleophile, 4-(4'-nitrobenzyl)pyridine, by 2-acyl-1,2-bis(methylsulfonyl)-1-(2-chloroethyl)hydrazines, providing direct evidence for the serum-dependent generation of the alkylating species from these prodrugs (Table V).
Relative Alkylation of 4-(4'-Nitrobenzyl)pyridine
(NBP) by 4 mM 2-Acetyl-1,2-bis(methylsulfonyl)-1-(2-
chloroethyl)hydrazine at 37° C. for 1 h in 100 mM Phosphate
Buffer (pH 7.4) in the Presence and Absence of 20% Bovine

[5] = Hydrolysis in the presence of bovine serum; assay type: in vitro ADME; conditions: for Rate of hydrolysis: 200 μM solution
Description: (§1) To verify that the prodrugs would be converted to alkylating species in vivo, we performed studies on the kinetics of hydrolysis of these compounds in the presence of serum and also in the presence of proteinase K (a protease of low specificity). […] Serum from different sources, i.e., mouse, bovine and man, were not equivalent in their activities or in their rank order of substrate specificity. […] Table IV reports the effects of bovine serum concentrates on hydrolysis of two compounds--the compounds of Example 1 and Example 6.
Effects of Bovine Serum Concentration on the
^a Expressed nmol/ml/min for a 200 μM solution.

[6] = Spontaneous decomposition (hydrolysis) in aqueous phosphate buffer, phenol red proton release assay; assay type: physicochemical
Description: The compounds of the invention are relatively stable. As a measure of their stability, spontaneous decomposition in aqueous media was measured in phosphate buffer, pH 7.4 (37° C.). Hydrolysis at N-1 would result in the generation of a carboxylic acid and the corresponding 1,2-bis(methylsulfonyl)-1-(2-chloroethyl)hydrazine. Since both of these compounds are ionized under these conditions, the release of protons can be used to follow the decomposition of these and related compounds. The release of protons can be assayed by following the decrease in absorbance at 560 nm of a weakly buffered (1 mM potassium phosphate) phenol red (21 mg/L) solution. The assay has been calibrated using HC1 standards. […] The spontaneous hydrolysis of the compound of Example 1 at pH 7.4, 37° C. in 1 mM phosphate buffer occurs at approximately 0.7% of the rate of the corresponding prior art compounds [1,2,2-tris(methylsulfonyl)-1-(2-chloroethyl)hydrazine] under the same conditions. The rate of hydrolysis was highly sensitive to changes in temperature and pH (Tables II and III). […] At pH 7.4, 37° C., a 200 μM solution of the compound of Example 1 hydrolyzes at the rate of approximately 0.6% per hour. […] Therefore, stable aqueous solutions of this agent can be formulated. The other analogs synthesized according to Examples 2-6 also hydrolyzed at relatively slow rates.

[7] = Hydrolysis in the presence of serum from different sources (mouse, bovine, man); assay type: in vitro ADME; conditions: bovine and man, in all cases
Description: as §1

[8] = Stewart and Evans (1989); cited from earlier work

CCC(=O)N(N(CCCl)S(C)(=O)=O)S(C)(=O)=O [Example 2, 1,2-Bis(methylsulfonyl)-1-(2-chloroethyl)-2-propionylhydrazine]
"cures" of mice bearing the L1210 leukemia ([1]; 5 mg/kg×6): 60%
"cures" of mice bearing the L1210 leukemia ([1]; 10 and 15 mg/kg×6): 80-90%
antineoplastic activity / curative effect (in words) [1]: appeared to be the most potent; also recorded: produced their curative effects at relatively low dosage levels
% 60-day survivors [1]: 90%
% T/C (average survival time of treated/control mice × 100) [1]: 217%
AvΔ wt % (average percent change in body weight from onset to termination of therapy) [1]: -6.4%
Opt. effective daily dose [1]: 10 mg/kg
water solubility (in words) [2]: most water-soluble analogs of this class

CN(N(S(C)(=O)=O)S(C)(=O)=O)S(C)(=O)=O [1-Methyl-1,2,2-tris(methylsulfonyl)hydrazine]
antineoplastic activity (in words) [3]: also showed antineoplastic activity
toxicity (in words) [3]: relatively less toxic

CC(=O)N(N(CCCl)S(C)(=O)=O)S(C)(=O)=O [Example 1, 1-Acetyl-1,2-bis(methylsulfonyl)-2-(2-chloroethyl)hydrazine]
60-day "cures" ([1]; 7.5 mg/kg, six daily intraperitoneal doses): 80%
antineoplastic activity / curative effect (in words) [1]: highly active against the L1210 leukemia; also recorded: produced their curative effects at relatively low dosage levels
% 60-day survivors [1]: 80%
% T/C (average survival time of treated/control mice × 100) [1]: 341%
AvΔ wt % (average percent change in body weight from onset to termination of therapy) [1]: +1.0%
Opt. effective daily dose [1]: 7.5 mg/kg
Relative alkylation of NBP ([4]; bovine serum (20%)): 5.7
Relative alkylation of NBP ([4]; no serum): 1.0
Rate of hydrolysis ([5]; 0% v/v bovine serum): 0.02 nmol/mL/min
Rate of hydrolysis ([5]; 5% v/v bovine serum): 0.055 nmol/mL/min
Rate of hydrolysis ([5]; 10% v/v bovine serum): 0.10 nmol/mL/min
Rate of hydrolysis ([5]; 20% v/v bovine serum): 0.26 nmol/mL/min
decrease in ability of bovine serum to hydrolyze the compound after boiling ([5]; boiled dilute solutions of bovine serum): > 75%
water solubility (in words) [2]: most water-soluble analogs of this class
Relative rate of hydrolysis ([6]; 23 °C (37 °C = 1.00)): 0.21
Relative rate of hydrolysis ([6]; 30 °C (37 °C = 1.00)): 0.57
Relative rate of hydrolysis ([6]; 32 °C (37 °C = 1.00)): 0.72
Relative rate of hydrolysis ([6]; 37 °C (reference, 1.00)): 1.00
increase of hydrolysis rate with pH ([6]; for every 0.2 unit rise in pH, pH 7.4-7.8 range): approximately 50%
change of hydrolysis rate with temperature ([6]; for every 5° C. rise in temperature): double
Relative rate of hydrolysis ([6]; pH 7.4 (pH 7.8 = 1.00)): 0.48
rate of spontaneous hydrolysis relative to prior art compound ([6]; pH 7.4, 37° C., 1 mM phosphate buffer, vs 1,2,2-tris(methylsulfonyl)-1-(2-chloroethyl)hydrazine): approximately 0.7%
Relative rate of hydrolysis ([6]; pH 7.5 (pH 7.8 = 1.00)): 0.57
Relative rate of hydrolysis ([6]; pH 7.6 (pH 7.8 = 1.00)): 0.70
Relative rate of hydrolysis ([6]; pH 7.8 (reference, 1.00)): 1.00
degraded at 1 h, 200 µM ([6]; phosphate buffer, 200 μM solution, pH 7.4, 37° C., read-out: rate of hydrolysis): ~0.6%

CS(=O)(=O)N(CCCl)N(S(C)(=O)=O)S(C)(=O)=O [PRIOR ART, 1-(2-chloroethyl)-1,2,2-tris(methylsulfonyl)hydrazine, reference compound]
% 60-day survivors [1]: 100%
AvΔ wt % (average percent change in body weight from onset to termination of therapy) [1]: -7.2%
Opt. effective daily dose [1]: 60 mg/kg
antineoplastic activity (in words) [3]: displays potent antineoplastic activity

CC(C)(C)C(=O)N(N(CCCl)S(C)(=O)=O)S(C)(=O)=O [Example 4, 1,2-Bis(methylsulfonyl)-1-(2-chloroethyl)-2-pivaloylhydrazine]
% 60-day survivors [1]: 60%
% T/C (average survival time of treated/control mice × 100) [1]: 302%
AvΔ wt % (average percent change in body weight from onset to termination of therapy) [1]: 0.0%
Opt. effective daily dose [1]: 20 mg/kg

COCC(=O)N(N(CCCl)S(C)(=O)=O)S(C)(=O)=O [Example 5, 1,2-Bis(methylsulfonyl)-1-(2-chloroethyl)-2-methoxyacetylhydrazine]
"cures" of tumor-bearing mice ([1]; 10 mg/kg×6): 100%
antineoplastic activity / curative effect (in words) [1]: produced their curative effects at relatively low dosage levels
% 60-day survivors [1]: 100%
AvΔ wt % (average percent change in body weight from onset to termination of therapy) [1]: -8.4%
lethality ([1]; higher dose levels examined (above 10 mg/kg×6)): lethal at the higher dose levels examined
Opt. effective daily dose [1]: 10 mg/kg
sensitivity to serum hydrolysis (in words) [7]: two most sensitive compounds
water solubility (in words) [2]: most water-soluble analogs of this class

CCCC(=O)N(N(CCCl)S(C)(=O)=O)S(C)(=O)=O [Example 3, 1,2-Bis(methylsulfonyl)-1-(n-butyryl)-2-(2-chloroethyl)hydrazine]
% 60-day survivors [1]: 20%
% T/C (average survival time of treated/control mice × 100) [1]: 207%
AvΔ wt % (average percent change in body weight from onset to termination of therapy) [1]: 0.0%
Opt. effective daily dose [1]: 10 mg/kg

CS(=O)(=O)N(CCCl)N(C(=O)c1ccccc1)S(C)(=O)=O [Example 6, 1-Benzoyl-1,2-bis(methylsulfonyl)-2-(2-chloroethyl)hydrazine]
% 60-day survivors [1]: 20%
% T/C (average survival time of treated/control mice × 100) [1]: 160%
AvΔ wt % (average percent change in body weight from onset to termination of therapy) [1]: -7.7%
Opt. effective daily dose [1]: 20 mg/kg
Rate of hydrolysis ([5]; 0% v/v bovine serum): 0.06 nmol/mL/min
Rate of hydrolysis ([5]; 5% v/v bovine serum): 0.22 nmol/mL/min
Rate of hydrolysis ([5]; 10% v/v bovine serum): 0.52 nmol/mL/min
Rate of hydrolysis ([5]; 20% v/v bovine serum): 1.31 nmol/mL/min
sensitivity to serum hydrolysis (in words) [7]: two most sensitive compounds

CCCCS(=N)(=O)CCC(N)C(=O)O (stereo not drawn) [Buthionine sulfoximine]
reversal of resistance to alkylating agents (in words) [8]: reverse this resistance by reducing cellular GSH levels
